Measurements from patent US5312749A, “Industrial alkaline protease from shipworm bacterium” (The United States of America as represented by the …, priority 1992, dated 1994).
Where a name gives a salt, the structure may show the parent alone. Read-outs that look alike come from different tables or passages of the source.

What was measured:
[1] = tested on: alkaline protease from shipworm bacterium; assay: Inhibition of alkaline protease: preincubation with inhibitor, then azocasein assay; format: biochemical, bacterial symbiont of the shipworm Psiloteredo healdi; conditions: for Activity (%): assay 42° C., pH 9.0, 0.2M NaCl
Procedure: The protease purification was monitored by assaying for proteolytic activity and protein concentration after each step. Proteolytic activity was determined in duplicate assays employing azocasein for the substrate, as described by Cotta et al. [Applied Environmental Microbiology, vol. 52, 51-58 (1986)]. Units represent μg of azocasein digested per hour. Protein concentrations were determined by the method of Bradford [Analytical Biochemistry, […] (1976)] with bovine serum albumin as a standard.
Several compounds known to inhibit various proteases were examined for their effect on the activity of the purified enzyme from Example 2 (Table II). The protease was incubated prior to assay for 1 hr at 25° C. All assays were measured at 42° C. and pH 9.0 in 0.2M NaCl buffered with 100 mM bis Tris propane.

[2] = tested on: alkaline protease from shipworm bacterium; assay: as above; format: biochemical, bacterial symbiont of the shipworm Psiloteredo healdi; conditions: inhibitor 0.1%; preincubation 1 hr at 42° C.; assay 42° C., pH 9.0, 0.2M NaCl
[3] = inhibitor 10 mM, preincubated 1 hr at 25° C., 100% = 154 units/ml
[4] = inhibitor 0.1 mM, preincubated 1 hr at 25° C., 100% = 154 units/ml
[5] = inhibitor 1 mM, preincubated 1 hr at 25° C., 100% = 154 units/ml

| SMILES | effect on the activity of the protease (in words) [1] | Activity (%) [1, 3] | Activity (%) [1, 4] | Activity (%) [1, 5] | other results |
| --- | --- | --- | --- | --- | --- |
| Cc1ccc2ccc3ccc(C)nc3c2n1 [Neocuproine HCl] | little effect | 99% |  |  |  |
| [Cl][Cu][Cl] [CuCl2] |  | 94% | 97% |  |  |
| O=S(=O)(F)Cc1ccccc1 [Phenylmethanesulphonyl fluoride] | does not inhibit activity | 102% | 93% | 98% |  |
| O=C(O)CN(CCN(CC(=O)O)CC(=O)O)CC(=O)O [EDTA (disodium salt), EDTA] | little effect | 102% |  |  |  |
| Cc1ccc(S(=O)(=O)N[C@@H](Cc2ccccc2)C(=O)CCl)cc1 [TPCK, tosylamide phenylethyl chloromethyl ketone] | unaffected | 100% | 94% | 99% |  |
| [Cl][Hg][Cl] [HgCl2] |  | 8% | 66% |  |  |
| NCCCCCC(=O)O [ε-Amino-n-caproic acid] | unaffected |  |  |  | Activity (%) ([1]; inhibitor 100 μg, preincubated 1 hr at 25° C.): 101%; Activity (%) ([1]; inhibitor 500 μg, preincubated 1 hr at 25° C.): 99% |
| O.O.O.O.[Na+].[O-]B1OO1 [Sodium perborate tetrahydrate] |  |  |  |  | Activity (%) ([1]; inhibitor 0.1%, preincubation 1 hr at 25° C.): 119%; effect on the activity of the protease (in words) ([1]; listed as perborate): protease activity stimulation; effect on the activity of the protease (in words) ([1]; listed as sodium perborate): little effect; effect on the activity of the protease (in words) ([1]; listed as sodium perborate tetrahydrate): apparent enhancement of protease activity; Activity (%) [2]: 117% |
| Cc1ccc(S(=O)(=O)N[C@@H](CCCCN)C(=O)CCl)cc1 [TLCK, tosyl-1-lysine chloromethyl ketone] | significantly reduces the activity at low concentrations and abolishes it at high concentrations | 7% | 47% | 20% |  |
| NC(=O)CI [Iodoacetamide] | little effect | 100% | 102% | 102% |  |
